Test [1] concerns the target T1, Dmel\Orco + Dmel\Or35a (Drosophila melanogaster, UniProt Q9VNB5).
T1 construct: expressed in transfected cells; host or cells: Xenopus laevis oocytes (cRNA injection, pGEMHE)
T1 sequence (Q9VNB5 1-486): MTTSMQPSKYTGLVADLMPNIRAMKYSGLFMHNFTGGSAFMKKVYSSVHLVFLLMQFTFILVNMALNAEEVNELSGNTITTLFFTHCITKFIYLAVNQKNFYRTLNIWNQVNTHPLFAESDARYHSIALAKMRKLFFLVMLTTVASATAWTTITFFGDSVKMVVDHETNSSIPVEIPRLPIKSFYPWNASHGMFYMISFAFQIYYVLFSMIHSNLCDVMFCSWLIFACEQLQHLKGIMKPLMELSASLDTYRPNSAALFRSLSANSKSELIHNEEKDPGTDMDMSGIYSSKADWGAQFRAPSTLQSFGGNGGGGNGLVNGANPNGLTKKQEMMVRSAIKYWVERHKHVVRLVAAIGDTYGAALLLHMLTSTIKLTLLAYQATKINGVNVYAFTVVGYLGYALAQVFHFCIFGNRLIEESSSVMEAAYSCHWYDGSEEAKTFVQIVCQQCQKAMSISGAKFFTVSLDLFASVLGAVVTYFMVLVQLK
T1 sequence (Q9V3Q2 1-409 partner): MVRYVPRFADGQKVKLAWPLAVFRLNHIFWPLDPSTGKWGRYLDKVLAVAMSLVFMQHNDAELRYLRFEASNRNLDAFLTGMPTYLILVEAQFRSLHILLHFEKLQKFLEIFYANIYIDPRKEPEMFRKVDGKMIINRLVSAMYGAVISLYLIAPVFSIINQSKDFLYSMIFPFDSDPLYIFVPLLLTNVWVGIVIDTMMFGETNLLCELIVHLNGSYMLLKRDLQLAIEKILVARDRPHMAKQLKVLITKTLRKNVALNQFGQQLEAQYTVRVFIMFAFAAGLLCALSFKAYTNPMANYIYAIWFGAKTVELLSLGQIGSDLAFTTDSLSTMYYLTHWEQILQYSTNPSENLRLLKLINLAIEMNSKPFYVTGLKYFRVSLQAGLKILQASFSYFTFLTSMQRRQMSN
Put plainly: Inhibition of OLC12 activation of Dmel\Orco + Dmel\Or35a in Xenopus oocytes. The test is classed as cell-based. As to the method:
(§1) Oocytes were surgically removed from mature Xenopus laevis frogs. Follicle cells were removed by treatment with Collagenase B (Boehringer Mannhem) for 2 hours at room temperature. Capped cRNA encoding each DmOR subunit was generated using mMessage mMachine kits (Ambion). For heteromeric ORs, 25 ng of cRNA encoding each OR subunit was injected into Stage V-VI Xenopus oocytes. For expression of Orco alone, 50 ng of cRNA was injected. Oocytes were incubated at 18°C in Barth’s saline (in mM: 88 NaCl, 1 KCl, 2.4 NaHCO3, 0.3 CaNO3, 0.41 CaCl2, 0.82 MgSO4, 15 HEPES, pH 7.6, and 150 µg/ml ceftazidime) for 2–5 days prior to electrophysiological recording.
(§2) Odorant and Orco ligand induced currents were recorded under two-electrode voltage clamp in Xenopus laevis oocytes expressing ORs, using an automated parallel electrophysiology system (OpusExpress 6000A; Molecular Devices). Oocytes were perfused with ND96 (in mM: 96 NaCl, 2 KCl, 1 CaCl2, 1 MgCl2, 5 HEPES, pH 7.5). Odorant stock solutions (0.5 or 1 M) and Orco ligand stock solutions (100 mM) were prepared in DMSO and diluted in ND96. Unless otherwise noted, applications were for 60 sec at a flow rate of 1.0 ml/min, with extensive washing in ND96 (9 or 20 min at 4.6 ml/min) between applications. Micropipettes were filled with 3 M KCl and had resistances of 0.2−2.0 MΩ. The holding potential was −70 mV. Current responses, filtered (4-pole, Bessel, low pass) at 20 Hz (−3 db) and sampled at 100 Hz, were captured and stored using OpusXpress 1.1 software (Molecular Devices).
(§3) In inhibition assays, oocytes were exposed to 60 sec applications of OLC12 with 9 min washes between applications (Fig. 3 and 4) or 60 sec applications of odorant with 20 min washes between applications (Fig. 5). Oocytes were then exposed to a 90 sec application of antagonist candidate, immediately followed by a 60 sec co-application of antagonist candidate and OLC12 or odorant. Oocytes were then exposed to a final 60 sec application of OLC12 or odorant. The current response in the presence of antagonist candidate was compared to the preceding response(s) to OLC12 (or odorant) alone.
(§4) Initial analysis of electrophysiological data was done using Clampfit 9.1 software (Molecular Devices). Curve fitting and statistical analyses were done using Prism 5 (Graphpad). Concentration-response data were fit to the equation: I = Imax/(1+(EC50/X)^n) where I represents the current response at a given concentration of odorant, X; Imax is the maximal response; EC50 is the concentration of agonist yielding a half maximal response; n is the apparent Hill coefficient. Concentration-inhibition data were fit to the equation: I = Imax/(1+(X/IC50)^n) where I represents the current response at a given concentration of inhibitor, X; Imax is the maximal response in the absence of inhibitor; IC50 is the concentration of inhibitor present that still allows a half maximal response from odorant; n is the apparent Hill coefficient. Statistical significance was assessed using a two-tailed unpaired t test, an F test, or a one-way analysis of variance followed by the Bonferroni’s post-test, as appropriate.

The target in test [2] is T1, Dmel\Orco + Dmel\Or35a. Put plainly: Inhibition of odorant (hexanol) activation of Dmel\Orco + Dmel\Or35a in Xenopus oocytes. It counts as cell-based. The settings on record: 3 µM hexanol; OLC2 100 µM, OLC15 50 µM, OLC20 200 µM. Here is the method:
as §1, §2
In inhibition assays, oocytes were exposed to 60 sec applications of OLC12 with 9 min washes between applications (Fig. 3 and 4) or 60 sec applications of odorant with 20 min washes between applications (Fig. 5). […]
Initial analysis of electrophysiological data was done using Clampfit 9.1 software (Molecular Devices). […] Statistical significance was assessed using a two-tailed unpaired t test, an F test, or a one-way analysis of variance followed by the Bonferroni’s post-test, as appropriate.

A further test relates to Cqui\Orco. In words: Agonist activation of homomeric Cqui\Orco in Xenopus oocytes, two-electrode voltage clamp. The following applies: 100 µM compound; mean ± SEM, n=3-8. It counts as cell-based, Culex quinquefasciatus.
Test [3] deals with T2, Cqui\Orco + Cqui\Or10 (Culex quinquefasciatus, UniProt D5LMR7+Q309I4). In words: Activation of Cqui\Orco + Cqui\Or10 in Xenopus oocytes, two-electrode voltage clamp. It counts as cell-based. The settings on record: 100 µM compound; mean ± SEM, n=3-8; read-out: Response amplitude as percentage of response to 100 µM OLC3, Cqui\Orco + Cqui\Or10. Here is the method: as §1, §2, §4
For orientation: Two-electrode voltage clamp holds a large cell at a set potential and records current.

The target in test [4] is T1, Dmel\Orco + Dmel\Or35a. Put plainly: Agonist activation of Dmel\Orco + Dmel\Or35a in Xenopus oocytes, two-electrode voltage clamp. The test is classed as cell-based. The settings on record: read-out: Response amplitude as percentage of response to 100 µM OLC3, Dmel\Orco + Dmel\Or35a. Here is the method:
as §1, §2, §4

Test [5] has as its target T2, Cqui\Orco + Cqui\Or10. In words: Inhibition of odorant (3-methylindole) activation of Cqui\Orco + Cqui\Or10 in Xenopus oocytes. It counts as cell-based. The settings on record: for Inhibition of activation of Cqui\Orco+Cqui\Or10 by 3-methylindole: 100 nM 3-methylindole, OLC compound 100 µM.
A further test addresses T3, Dmel\Orco (Drosophila melanogaster, UniProt Q9VNB5).
T3 construct: expressed in transfected cells; host or cells: Xenopus laevis oocytes (cRNA injection, pGEMHE)
T3 sequence (Q9VNB5 1-486): T1 sequence (Q9VNB5 1-486)
Put plainly: Inhibition of OLC12 activation of Dmel\Orco in Xenopus oocytes. The test is classed as cell-based. The settings on record: for IC50: activated by 30 µM OLC12 (EC39). As to the method: as §1, §2, §3, §4

[6] abbreviates: activated by 10 µM OLC12 (EC25), read-out: IC50, Dmel\Orco + Dmel\Or35a (activated by 10 µM OLC12).

Read-outs that look alike come from different tables or passages of the source.

T2 sequence (D5LMR7 entry or part of it): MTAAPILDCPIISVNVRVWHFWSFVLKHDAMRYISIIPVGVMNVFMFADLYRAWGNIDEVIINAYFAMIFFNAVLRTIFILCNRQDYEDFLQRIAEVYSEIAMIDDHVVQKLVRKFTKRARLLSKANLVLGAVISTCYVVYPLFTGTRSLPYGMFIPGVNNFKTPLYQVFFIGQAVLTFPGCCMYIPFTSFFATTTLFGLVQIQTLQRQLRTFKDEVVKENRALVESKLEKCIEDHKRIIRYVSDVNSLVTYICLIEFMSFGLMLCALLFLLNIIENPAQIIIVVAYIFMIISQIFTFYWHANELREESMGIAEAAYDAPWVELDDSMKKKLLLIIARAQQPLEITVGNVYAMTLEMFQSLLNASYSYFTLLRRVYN
T2 sequence (Q309I4 entry or part of it): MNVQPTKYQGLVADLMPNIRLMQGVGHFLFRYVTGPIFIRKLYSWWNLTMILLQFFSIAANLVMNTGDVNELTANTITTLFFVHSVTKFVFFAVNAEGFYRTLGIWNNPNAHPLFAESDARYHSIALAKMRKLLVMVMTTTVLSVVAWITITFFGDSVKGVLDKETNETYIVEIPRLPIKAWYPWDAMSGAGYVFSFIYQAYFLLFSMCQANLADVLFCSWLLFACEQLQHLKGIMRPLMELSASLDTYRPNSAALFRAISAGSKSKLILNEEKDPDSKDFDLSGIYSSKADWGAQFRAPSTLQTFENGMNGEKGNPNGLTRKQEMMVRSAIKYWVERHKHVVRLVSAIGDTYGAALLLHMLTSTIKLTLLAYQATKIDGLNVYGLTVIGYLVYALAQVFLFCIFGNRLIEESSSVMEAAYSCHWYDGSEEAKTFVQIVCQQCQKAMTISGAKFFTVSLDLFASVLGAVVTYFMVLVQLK

One may read the IC50 as the concentration that inhibits the measured activity by half. For `CCc1ccc(NC(=O)CSc2nnc(-c3ccccn3)n2CC)cc1` [OLC2], the IC50 at Dmel\Orco + Dmel\Or35a [1] (setting [6]) was found to be 24 ± 5 µM; at Dmel\Orco, 23 ± 3 µM. Further, the “Inhibition of the hexanol response of Dmel\Orco+Dmel\Or35a” value on Dmel\Orco + Dmel\Or35a [2] is “did not inhibit”. Moreover, the “Response amplitude as percentage of response to 100 µM OLC3, Cqui\Orco” value in the test with Cqui\Orco came to 0%. Moreover, the Emax at 100 µM on Cqui\Orco + Cqui\Or10 [3] is 0%; at Dmel\Orco + Dmel\Or35a [4], 2 ± 1%. Besides, the “Inhibition of activation of Cqui\Orco+Cqui\Or10 by 3-methylindole” value on Cqui\Orco + Cqui\Or10 [5] is recorded as “inhibited”. The “Inhibition of activation of Dmel\Orco by 30 µM OLC12 on co-application” value at Dmel\Orco (100 µM compound co-applied with 30 µM OLC12) was “inhibits”.
On to `CCCCc1ccc(NC(=O)CSc2nnc(-c3ccccn3)n2CC)cc1` [OLC15], for which the half-inhibitory concentration (IC50) amounted to 15 ± 1 µM at Dmel\Orco + Dmel\Or35a [1] (setting [6]); 67 ± 7 µM on Dmel\Orco + Dmel\Or35a [1] (activated by 100 µM OLC12, read-out: IC50, Dmel\Orco + Dmel\Or35a activated by 100 µM OLC12); 1.5 ± 0.2 µM at Cqui\Orco + Cqui\Or10 [5] (activated by 10 nM 3-methylindole (EC10), read-out: IC50 for inhibition of responses to 10 nM 3-MI); 2 ± 0.3 µM at Cqui\Orco + Cqui\Or10 [5] (activated by 100 nM 3-methylindole (EC53), read-out: IC50 for inhibition of responses to 100 nM 3-MI); 15 ± 2 µM against Dmel\Orco. Also, the “Inhibition of the hexanol response of Dmel\Orco+Dmel\Or35a” value at Dmel\Orco + Dmel\Or35a [2] is on record as “substantial inhibition”. The “Response amplitude as percentage of response to 100 µM OLC3, Cqui\Orco” value with Cqui\Orco is given as 0%. The Emax at 100 µM on Cqui\Orco + Cqui\Or10 [3] and on Dmel\Orco + Dmel\Or35a [4] was 0% in each case. Moreover, the “Inhibition of activation of Cqui\Orco+Cqui\Or10 by 3-methylindole” value at Cqui\Orco + Cqui\Or10 [5] is recorded as “inhibited”.

These data come from PMC3348135, “Identification of New Agonists and Antagonists of the Insect Odorant Receptor Co-Receptor Subunit” (PLoS ONE, 2012).
